A word on the Kd: it is the concentration at which binding is half-saturated. Low readings indicate tighter binding, high ones weaker binding.

For the test, the target named is T1, HmuY^Pe (Porphyromonas endodontalis, UniProt C3JC46).
T1 construct: gene POREN0001_0444
The experiment in a line: biochemical.

T1 sequence (C3JC46 entry or part of it): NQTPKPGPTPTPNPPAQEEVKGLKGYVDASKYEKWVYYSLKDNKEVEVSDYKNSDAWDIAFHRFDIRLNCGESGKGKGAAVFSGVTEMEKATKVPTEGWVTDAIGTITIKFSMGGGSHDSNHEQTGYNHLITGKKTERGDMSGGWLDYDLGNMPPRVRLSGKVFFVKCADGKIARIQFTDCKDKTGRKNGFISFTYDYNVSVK

Take `C=CC1=C(C)C2=Cc3c(C=C)c(C)c4[n]3[Fe][n]3c(c(C)c(CCC(=O)O)c3=CC3=NC(=C4)C(C)=C3CCC(=O)O)=CC1=N2` [Fe(II)heme]: the Kd turned out to be 41 nM.
